Assay results published in ChEMBL document CHEMBL5465560, “Selectivity Literature for EUbOPEN Chemogenomic Library” (2024).
Blank lines part the entries; values can stand above or below the molecule they belong to.

Assays:
[1] = target: Glycogen synthase kinase-3 beta (Homo sapiens, UniProt P49841); test: Selectivity interaction (Kinase panel (Z-LYTE Assay)) EUB0001632a GSK3B; conditions: at 10 µM
[2] = target: Histamine H1 receptor (Homo sapiens, UniProt P35367); test: Selectivity interaction (Eurofins CEREP Diversity Profile (receptors and ion channels)) EUB0000279b HRH1; conditions: at 10 µM
Chain of Histamine H1 receptor (P35367 whole entry): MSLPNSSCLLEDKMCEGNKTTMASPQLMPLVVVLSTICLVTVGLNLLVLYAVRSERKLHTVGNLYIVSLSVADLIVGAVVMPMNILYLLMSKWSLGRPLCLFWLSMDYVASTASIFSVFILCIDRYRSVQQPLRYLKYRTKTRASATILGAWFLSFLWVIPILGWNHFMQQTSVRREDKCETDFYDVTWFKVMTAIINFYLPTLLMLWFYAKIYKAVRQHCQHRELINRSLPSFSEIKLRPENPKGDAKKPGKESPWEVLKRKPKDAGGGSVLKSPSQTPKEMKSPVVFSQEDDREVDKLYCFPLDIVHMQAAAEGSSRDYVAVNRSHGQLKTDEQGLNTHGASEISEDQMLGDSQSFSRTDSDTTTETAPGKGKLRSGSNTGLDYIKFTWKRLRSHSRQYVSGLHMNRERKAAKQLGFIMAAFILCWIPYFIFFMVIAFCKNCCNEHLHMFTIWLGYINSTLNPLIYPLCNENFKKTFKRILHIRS

[3] = target: Tyrosine-protein kinase Lyn (Homo sapiens, UniProt P07948); test: Selectivity interaction (ActivX KiNativ screen (kinase selectivity in THP-1 cell lysates)) EUB0000639a LYN; type: subcellular; conditions: lysate, at 0.04 µM
Chain of Tyrosine-protein kinase Lyn (P07948 2-512 limits assumed): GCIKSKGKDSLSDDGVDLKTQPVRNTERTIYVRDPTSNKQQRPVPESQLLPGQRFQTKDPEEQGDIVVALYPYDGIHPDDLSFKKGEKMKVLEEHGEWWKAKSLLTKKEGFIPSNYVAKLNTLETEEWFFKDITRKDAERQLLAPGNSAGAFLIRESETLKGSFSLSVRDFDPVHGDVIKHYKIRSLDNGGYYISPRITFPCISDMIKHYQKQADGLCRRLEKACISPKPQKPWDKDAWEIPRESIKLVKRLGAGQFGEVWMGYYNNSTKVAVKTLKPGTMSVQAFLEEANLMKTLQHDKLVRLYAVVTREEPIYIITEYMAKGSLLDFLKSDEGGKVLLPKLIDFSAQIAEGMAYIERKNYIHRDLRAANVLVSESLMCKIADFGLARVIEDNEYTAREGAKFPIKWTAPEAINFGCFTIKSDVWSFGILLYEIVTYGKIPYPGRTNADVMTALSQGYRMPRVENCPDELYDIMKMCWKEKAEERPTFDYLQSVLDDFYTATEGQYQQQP

[4] = target: T1, Serine/threonine-protein kinase Sgk3 (Homo sapiens) (UniProt Q96BR1); test: Selectivity interaction (ActivX KiNativ screen (kinase selectivity in THP-1 cell lysates)) EUB0000639a SGK3; type: subcellular; conditions: lysate, at 0.04 µM
T1 sequence (whole entry): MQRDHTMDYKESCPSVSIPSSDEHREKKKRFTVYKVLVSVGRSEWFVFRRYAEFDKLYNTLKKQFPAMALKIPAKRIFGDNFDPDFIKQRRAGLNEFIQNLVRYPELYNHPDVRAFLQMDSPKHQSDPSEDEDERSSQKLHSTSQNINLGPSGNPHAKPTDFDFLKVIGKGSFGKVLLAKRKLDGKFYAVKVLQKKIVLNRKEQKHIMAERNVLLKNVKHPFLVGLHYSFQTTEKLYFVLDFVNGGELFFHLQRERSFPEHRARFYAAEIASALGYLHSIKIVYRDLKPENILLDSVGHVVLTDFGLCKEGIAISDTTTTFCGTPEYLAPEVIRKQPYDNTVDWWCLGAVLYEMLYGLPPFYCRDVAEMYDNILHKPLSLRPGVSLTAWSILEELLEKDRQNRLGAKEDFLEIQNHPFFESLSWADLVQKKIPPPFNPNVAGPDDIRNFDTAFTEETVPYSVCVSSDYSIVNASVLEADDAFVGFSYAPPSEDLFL

[5] = target: Histone-lysine N-methyltransferase, H3 lysine-36 specific (Homo sapiens) (UniProt Q96L73); test: Selectivity interaction (Methyltransferase screen (radiometric assays, panel of 8 PRMTs, 21 protein lysine methyltransferases, 3 DNA methyltransferases, and one RNA methyltransferase)) EUB0000271b NSD1
Chain of Histone-lysine N-methyltransferase, H3 lysine-36 specific (Homo sapiens) (Q96L73 whole entry): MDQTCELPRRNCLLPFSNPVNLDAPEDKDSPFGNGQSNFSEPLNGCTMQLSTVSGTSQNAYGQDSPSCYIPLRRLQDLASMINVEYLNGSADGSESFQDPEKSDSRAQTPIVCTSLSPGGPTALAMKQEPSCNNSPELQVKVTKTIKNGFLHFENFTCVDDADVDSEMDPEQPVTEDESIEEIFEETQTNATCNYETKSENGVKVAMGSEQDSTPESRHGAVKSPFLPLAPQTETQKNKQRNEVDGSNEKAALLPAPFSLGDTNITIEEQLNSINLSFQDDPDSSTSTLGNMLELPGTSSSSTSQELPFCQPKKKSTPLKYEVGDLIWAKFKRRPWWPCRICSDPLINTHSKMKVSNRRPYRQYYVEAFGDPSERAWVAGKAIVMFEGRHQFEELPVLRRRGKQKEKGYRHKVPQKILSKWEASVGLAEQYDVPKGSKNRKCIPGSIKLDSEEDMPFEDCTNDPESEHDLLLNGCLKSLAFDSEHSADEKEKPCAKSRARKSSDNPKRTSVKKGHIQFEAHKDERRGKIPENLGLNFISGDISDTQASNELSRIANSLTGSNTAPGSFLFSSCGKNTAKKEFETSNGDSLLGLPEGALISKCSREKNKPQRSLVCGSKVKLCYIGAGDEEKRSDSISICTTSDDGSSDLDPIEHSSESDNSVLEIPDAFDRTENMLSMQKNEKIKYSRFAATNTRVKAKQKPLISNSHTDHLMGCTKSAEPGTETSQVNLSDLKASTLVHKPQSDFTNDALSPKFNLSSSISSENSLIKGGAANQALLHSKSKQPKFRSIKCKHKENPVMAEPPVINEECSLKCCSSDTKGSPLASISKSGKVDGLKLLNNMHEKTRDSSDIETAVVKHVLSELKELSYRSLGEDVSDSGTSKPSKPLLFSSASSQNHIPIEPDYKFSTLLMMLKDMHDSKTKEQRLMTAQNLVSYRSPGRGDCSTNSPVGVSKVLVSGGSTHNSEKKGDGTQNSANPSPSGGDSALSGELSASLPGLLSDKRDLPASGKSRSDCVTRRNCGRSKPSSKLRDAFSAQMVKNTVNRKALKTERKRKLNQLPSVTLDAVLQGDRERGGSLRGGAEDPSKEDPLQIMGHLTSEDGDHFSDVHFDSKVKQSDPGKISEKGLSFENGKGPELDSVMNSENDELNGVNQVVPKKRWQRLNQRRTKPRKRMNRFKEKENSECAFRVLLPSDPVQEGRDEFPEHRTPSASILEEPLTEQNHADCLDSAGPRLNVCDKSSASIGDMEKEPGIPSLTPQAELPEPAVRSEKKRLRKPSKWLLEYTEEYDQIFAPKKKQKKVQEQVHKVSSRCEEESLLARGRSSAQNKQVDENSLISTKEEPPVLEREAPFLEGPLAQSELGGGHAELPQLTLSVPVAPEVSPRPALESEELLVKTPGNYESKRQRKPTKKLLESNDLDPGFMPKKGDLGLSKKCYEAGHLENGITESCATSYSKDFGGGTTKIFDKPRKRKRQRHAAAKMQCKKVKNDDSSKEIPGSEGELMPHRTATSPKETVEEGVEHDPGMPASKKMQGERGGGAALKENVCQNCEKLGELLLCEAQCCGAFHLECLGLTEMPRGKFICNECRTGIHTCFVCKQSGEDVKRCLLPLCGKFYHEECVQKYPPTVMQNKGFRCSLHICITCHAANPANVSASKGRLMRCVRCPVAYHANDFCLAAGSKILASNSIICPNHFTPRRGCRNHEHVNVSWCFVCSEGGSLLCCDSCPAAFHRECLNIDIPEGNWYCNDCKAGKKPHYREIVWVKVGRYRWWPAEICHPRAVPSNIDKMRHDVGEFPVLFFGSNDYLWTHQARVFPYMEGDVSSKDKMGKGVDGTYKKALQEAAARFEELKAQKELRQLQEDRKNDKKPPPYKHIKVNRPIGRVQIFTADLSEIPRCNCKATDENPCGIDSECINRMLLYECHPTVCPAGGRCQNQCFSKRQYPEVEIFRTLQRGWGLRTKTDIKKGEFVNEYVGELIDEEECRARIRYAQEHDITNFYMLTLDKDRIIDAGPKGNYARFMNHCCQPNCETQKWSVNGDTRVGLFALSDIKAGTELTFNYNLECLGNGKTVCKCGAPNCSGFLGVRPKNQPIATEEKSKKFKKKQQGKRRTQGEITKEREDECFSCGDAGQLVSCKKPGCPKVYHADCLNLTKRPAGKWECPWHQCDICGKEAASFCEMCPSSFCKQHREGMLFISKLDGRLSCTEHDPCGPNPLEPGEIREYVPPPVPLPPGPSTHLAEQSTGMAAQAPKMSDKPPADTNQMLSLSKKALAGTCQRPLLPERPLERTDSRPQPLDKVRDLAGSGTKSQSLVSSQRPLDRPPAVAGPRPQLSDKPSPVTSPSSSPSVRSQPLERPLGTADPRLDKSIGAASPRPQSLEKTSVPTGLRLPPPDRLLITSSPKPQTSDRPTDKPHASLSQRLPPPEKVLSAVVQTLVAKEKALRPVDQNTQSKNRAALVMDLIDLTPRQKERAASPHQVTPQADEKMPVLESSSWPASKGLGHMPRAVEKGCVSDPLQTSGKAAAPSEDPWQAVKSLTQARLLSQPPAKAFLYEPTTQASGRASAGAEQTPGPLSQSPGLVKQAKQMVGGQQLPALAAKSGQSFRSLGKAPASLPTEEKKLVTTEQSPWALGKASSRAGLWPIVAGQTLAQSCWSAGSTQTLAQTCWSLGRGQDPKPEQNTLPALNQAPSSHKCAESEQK

[6] = target: Dual specificity tyrosine-phosphorylation-regulated kinase 1B (Homo sapiens, UniProt Q9Y463); test: Selectivity interaction (KinomeScan (DiscoverX)) EUB0000045b DYRK1B
Chain of Dual specificity tyrosine-phosphorylation-regulated kinase 1B (Q9Y463 whole entry, looked up): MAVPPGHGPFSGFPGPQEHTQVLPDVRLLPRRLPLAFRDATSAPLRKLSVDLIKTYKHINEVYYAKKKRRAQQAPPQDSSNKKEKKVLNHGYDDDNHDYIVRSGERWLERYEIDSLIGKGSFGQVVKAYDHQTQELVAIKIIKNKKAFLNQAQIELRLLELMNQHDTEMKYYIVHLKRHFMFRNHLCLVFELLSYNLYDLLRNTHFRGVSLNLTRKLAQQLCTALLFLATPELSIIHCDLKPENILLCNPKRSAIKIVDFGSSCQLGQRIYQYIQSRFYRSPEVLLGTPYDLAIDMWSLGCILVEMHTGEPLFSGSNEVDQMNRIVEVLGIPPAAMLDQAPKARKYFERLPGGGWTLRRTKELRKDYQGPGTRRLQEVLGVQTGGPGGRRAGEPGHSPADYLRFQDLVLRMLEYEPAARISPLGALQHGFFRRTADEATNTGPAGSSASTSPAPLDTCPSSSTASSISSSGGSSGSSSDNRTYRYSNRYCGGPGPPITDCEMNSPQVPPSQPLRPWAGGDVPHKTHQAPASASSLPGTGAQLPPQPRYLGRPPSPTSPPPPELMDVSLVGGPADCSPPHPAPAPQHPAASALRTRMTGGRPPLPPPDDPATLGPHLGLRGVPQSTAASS

[7] = target: Phosphatidylinositol 4-phosphate 5-kinase type-1 gamma (Homo sapiens) (UniProt O60331); test: Selectivity interaction (KinomeScan (DiscoverX)) EUB0001079a PIP5K1C; conditions: at 1 µM
Chain of Phosphatidylinositol 4-phosphate 5-kinase type-1 gamma (Homo sapiens) (O60331 whole entry, the tested form may be a part): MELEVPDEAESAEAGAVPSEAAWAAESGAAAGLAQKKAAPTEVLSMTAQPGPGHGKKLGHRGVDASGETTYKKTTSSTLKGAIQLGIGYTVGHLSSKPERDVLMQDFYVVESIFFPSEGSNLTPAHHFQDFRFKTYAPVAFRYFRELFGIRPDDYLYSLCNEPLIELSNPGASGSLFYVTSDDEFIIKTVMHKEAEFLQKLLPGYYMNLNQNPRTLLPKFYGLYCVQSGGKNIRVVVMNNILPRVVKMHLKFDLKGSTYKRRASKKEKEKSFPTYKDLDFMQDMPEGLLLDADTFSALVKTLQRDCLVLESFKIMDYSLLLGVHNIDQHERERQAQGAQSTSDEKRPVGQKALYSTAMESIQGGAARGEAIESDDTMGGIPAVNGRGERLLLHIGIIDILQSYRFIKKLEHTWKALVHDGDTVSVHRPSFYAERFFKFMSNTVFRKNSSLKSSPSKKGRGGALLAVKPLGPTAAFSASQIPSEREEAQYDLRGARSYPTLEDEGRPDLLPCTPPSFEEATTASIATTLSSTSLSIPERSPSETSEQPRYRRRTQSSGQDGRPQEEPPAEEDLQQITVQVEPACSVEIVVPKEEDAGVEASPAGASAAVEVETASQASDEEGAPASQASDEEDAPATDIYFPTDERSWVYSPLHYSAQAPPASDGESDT

[8] = target: T2, Phosphatidylinositol 3-kinase C2 domain-containing subunit gamma (Homo sapiens) (UniProt O75747); test: Selectivity interaction (KinomeScan (DiscoverX)) EUB0000092b PIK3C2G; conditions: at 10 µM
T2 sequence (whole entry): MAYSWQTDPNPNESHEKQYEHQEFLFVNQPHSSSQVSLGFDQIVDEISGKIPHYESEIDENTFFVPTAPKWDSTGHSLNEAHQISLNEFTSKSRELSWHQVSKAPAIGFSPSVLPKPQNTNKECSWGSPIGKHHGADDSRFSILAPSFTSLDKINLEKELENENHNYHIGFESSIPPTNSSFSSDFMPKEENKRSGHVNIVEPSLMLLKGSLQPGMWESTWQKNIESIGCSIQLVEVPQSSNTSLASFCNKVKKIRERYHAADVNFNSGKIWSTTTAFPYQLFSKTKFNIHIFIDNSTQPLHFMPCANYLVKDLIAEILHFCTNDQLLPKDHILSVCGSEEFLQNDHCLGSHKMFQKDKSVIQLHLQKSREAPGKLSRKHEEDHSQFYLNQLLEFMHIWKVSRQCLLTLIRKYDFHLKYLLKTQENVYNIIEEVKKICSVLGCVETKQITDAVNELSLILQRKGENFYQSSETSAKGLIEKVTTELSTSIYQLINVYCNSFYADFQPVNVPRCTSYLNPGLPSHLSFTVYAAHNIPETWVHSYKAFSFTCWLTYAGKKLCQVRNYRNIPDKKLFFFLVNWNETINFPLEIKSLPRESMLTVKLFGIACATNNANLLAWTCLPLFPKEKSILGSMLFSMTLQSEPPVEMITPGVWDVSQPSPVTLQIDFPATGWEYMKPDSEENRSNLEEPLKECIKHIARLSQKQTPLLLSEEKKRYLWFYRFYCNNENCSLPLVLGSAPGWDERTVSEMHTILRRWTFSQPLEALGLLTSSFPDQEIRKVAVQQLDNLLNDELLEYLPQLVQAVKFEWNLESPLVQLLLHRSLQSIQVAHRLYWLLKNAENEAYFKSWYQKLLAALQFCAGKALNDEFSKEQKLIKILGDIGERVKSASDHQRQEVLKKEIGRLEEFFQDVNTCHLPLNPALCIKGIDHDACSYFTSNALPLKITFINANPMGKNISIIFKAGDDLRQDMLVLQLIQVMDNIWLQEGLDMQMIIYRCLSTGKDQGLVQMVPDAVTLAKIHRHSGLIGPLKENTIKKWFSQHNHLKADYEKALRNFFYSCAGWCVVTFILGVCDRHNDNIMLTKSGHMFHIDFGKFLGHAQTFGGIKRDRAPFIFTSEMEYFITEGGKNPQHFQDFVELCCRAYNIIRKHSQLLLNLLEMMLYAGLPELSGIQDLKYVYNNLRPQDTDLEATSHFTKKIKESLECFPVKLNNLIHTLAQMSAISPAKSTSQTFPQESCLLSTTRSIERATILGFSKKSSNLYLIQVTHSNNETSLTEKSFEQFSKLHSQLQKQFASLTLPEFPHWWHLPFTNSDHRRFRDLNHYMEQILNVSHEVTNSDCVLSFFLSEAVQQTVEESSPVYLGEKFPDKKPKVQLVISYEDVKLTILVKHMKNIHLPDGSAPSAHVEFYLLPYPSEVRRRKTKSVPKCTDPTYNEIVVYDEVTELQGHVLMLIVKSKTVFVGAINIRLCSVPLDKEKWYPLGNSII

% of control [1]: 89.1%
SMILES: Cn1cc(-n2cnc3c(NCc4nc5cc(Cl)c(Cl)cc5[nH]4)nc(N4CCOCC4)nc32)cn1

% of control [2]: 107%
SMILES: CC(=O)c1cc(-c2ccccc2OCC2CC2)c2ncccn12

% of inhibition [3]: -15.2%
% of inhibition [4]: 3.1%
SMILES: CC[C@@H]1[C@H](F)C(=O)N[C@@H]1COc1nccc2cc(C(N)=O)c(OC)cc12 [ZIMLOVISERTIB]

SMILES: Cc1cc(C)cc([C@@H]2c3cc(C)ccc3NC(=O)CN2C(=O)c2ccc(Br)s2)c1
% of activity ([5]; at 1 µM): 97%
% of activity ([5]; at 10 µM): 103%

SMILES: C=CC(=O)Nc1cc(-n2c(=O)ccc3cnc4ccc(-c5ccc(NS(C)(=O)=O)cc5)cc4c32)ccc1C
% of control ([6]; at 1 µM): 100%
% of control ([6]; at 10 µM): 81%

SMILES: Nc1cnc(N2CCc3cc(S(=O)(=O)Nc4c(F)cc(Cl)cc4F)cc(N4CCCC4=O)c32)nc1 [TP-020n]
% of control [7]: 75%

SMILES: CCC(=O)N1CCN(c2ccc(-n3c(=O)ccc4cnc5ccc(-c6cnc7ccccc7c6)cc5c43)cc2C(F)(F)F)CC1
% of control [8]: 11%
